Results reported in ChEMBL document CHEMBL4229407, “Optimization and in vivo evaluation of pyrazolopyridines as a potent and selective PI3Kδ inhibitor” (Bioorg Med Chem, 2018).
Blank lines part the entries; values can stand above or below the molecule they belong to.

Assays:
[1] = biological target: PI3-kinase p110-delta/p85-alpha (Homo sapiens, UniProt O00329); experiment: Inhibition of recombinant human full length N-terminal His6-tagged PI3K p110delta/p85alpha expressed in baculovirus infected Sf21 cells using PIP2 as substrate after 35 to 40 mins by HTRF assay
Homo sapiens [2] = species: Homo sapiens; experiment: Selectivity ratio of IC50 for recombinant human full length N-terminal His6-tagged PI3K p110alpha/p85alpha expressed in baculovirus infected Sf21 cells to IC50 for recombinant human full length N-terminal His6-tagged PI3K p110delta/p85alpha expressed in baculovirus infected Sf21 cells
Homo sapiens [3] = species: Homo sapiens; experiment: Selectivity ratio of IC50 for recombinant human full length N-terminal His6-tagged PI3K p120gamma expressed in baculovirus infected Sf21 cells to IC50 for recombinant human full length N-terminal His6-tagged PI3K p110delta/p85alpha expressed in baculovirus infected Sf21 cells
Homo sapiens [4] = species: Homo sapiens; experiment: Selectivity ratio of IC50 for recombinant human full length N-terminal His6-tagged PI3K p110beta/p85alpha expressed in baculovirus infected Sf21 cells to IC50 for recombinant human full length N-terminal His6-tagged PI3K p110delta/p85alpha expressed in baculovirus infected Sf21 cells
[5] = Intrinsic clearance in CD-1 mouse liver microsomes at 0.2 uM up to 45 mins in presence of NADPH by LC-MS/MS analysis; format: ADME, microsome; settings: read-out: CLH
Mus musculus [6] = experiment: In vivo inhibition of PI3Kdelta in Balb/c mouse assessed as reduction in trinitrophenylated aminoethylcarboxymethyl-Ficoll-induced antibody production in plasma at 1 mg/kg, po administered twice daily measured on day 4 by ELISA relative to control; format: functional; settings: 96 h
[7] = Metabolic stability in CD-1 mouse liver microsomes at 0.2 uM up to 45 mins in presence of NADPH by LC-MS/MS analysis; format: ADME, microsome; settings: 0.75 h
Mus musculus [8] = experiment: In vivo inhibition of PI3Kdelta in Balb/c mouse assessed as reduction in trinitrophenylated aminoethylcarboxymethyl-Ficoll-induced antibody production in plasma at 2 mg/kg, po administered twice daily measured on day 4 by ELISA relative to control; format: functional; settings: 96 h
[9] = Aqueous solubility in pH 6.8 solution at 130 uM after 20 hrs by liquid chromatography method; format: physicochemical; settings: aqueous pH 6.8 solution
Mus musculus [10] = experiment: In vivo inhibition of PI3Kdelta in Balb/c mouse assessed as reduction in trinitrophenylated aminoethylcarboxymethyl-Ficoll-induced antibody production in plasma administered orally twice daily measured on day 4 by ELISA; format: functional, organism-based
[11] = Total clearance in Balb/c mouse at 1 mg/kg, iv or 3 mg/kg, po by LC-MS/MS analysis; format: ADME, organism-based; settings: in vivo
[12] = Permeability of the compound at 50 uM after 2 hrs by HPLC based PAMPA; format: ADME; settings: read-out: permeability
Cytochrome P450 2C8 = biological target: T1, Cytochrome P450 2C8 (Homo sapiens, UniProt P10632); experiment: Inhibition of CYP2C8 in human liver microsomes at 5 uM using amodiaquine as substrate after 20 mins in presence of NADPH by LC-MS/MS analysis; format: ADME
T1 sequence (P10632 whole entry): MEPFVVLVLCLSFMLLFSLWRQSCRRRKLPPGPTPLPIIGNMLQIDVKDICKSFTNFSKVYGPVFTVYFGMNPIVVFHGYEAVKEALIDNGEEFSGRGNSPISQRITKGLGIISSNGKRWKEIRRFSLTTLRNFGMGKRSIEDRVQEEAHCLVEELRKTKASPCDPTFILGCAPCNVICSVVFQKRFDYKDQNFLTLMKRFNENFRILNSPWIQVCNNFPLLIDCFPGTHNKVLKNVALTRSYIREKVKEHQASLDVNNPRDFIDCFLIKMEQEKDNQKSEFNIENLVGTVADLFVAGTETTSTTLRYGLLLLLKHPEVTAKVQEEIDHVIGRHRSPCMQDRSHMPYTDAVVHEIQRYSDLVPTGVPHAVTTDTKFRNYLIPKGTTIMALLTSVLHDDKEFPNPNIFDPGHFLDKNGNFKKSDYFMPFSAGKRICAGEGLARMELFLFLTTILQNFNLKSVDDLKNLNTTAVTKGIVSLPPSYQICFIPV

[13] = Fraction unbound in mouse plasma at 2 uM after 6 hrs by LC-MS/MS based equilibrium dialysis method; format: ADME, cell-free
[14] = Tmax in Balb/c mouse at 1 mg/kg, iv or 3 mg/kg, po by LC-MS/MS analysis; format: ADME, organism-based; settings: in vivo
[15] = Volume of distribution at steady state in Balb/c mouse at 1 mg/kg, iv or 3 mg/kg, po by LC-MS/MS analysis; format: ADME, organism-based; settings: in vivo, read-out: Vdss
Cytochrome P450 2C19 = Cytochrome P450 2C19 (Homo sapiens, UniProt P33261); experiment: Inhibition of CYP2C19 in human liver microsomes at 5 uM using S-mephenytoin as substrate after 20 mins in presence of NADPH by LC-MS/MS analysis; format: ADME
Cytochrome P450 3A4 = Cytochrome P450 3A4 (Homo sapiens, UniProt P08684); experiment: Inhibition of CYP3A4 in human liver microsomes at 5 uM using midazolam as substrate after 20 mins in presence of NADPH by LC-MS/MS analysis; format: ADME
[16] = Cmax in Balb/c mouse at 1 mg/kg, iv or 3 mg/kg, po by LC-MS/MS analysis; format: ADME, organism-based; settings: in vivo
Mus musculus [17] = experiment: In vivo inhibition of PI3Kdelta in Balb/c mouse assessed as reduction in trinitrophenylated aminoethylcarboxymethyl-Ficoll-induced antibody production in plasma at 0.5 mg/kg, po administered twice daily measured on day 4 by ELISA relative to control; format: functional; settings: 96 h
[18] = AUC (0 to 24 hrs) in Balb/c mouse at 1 mg/kg, iv or 3 mg/kg, po by LC-MS/MS analysis; format: ADME, organism-based; settings: in vivo
Cytochrome P450 1A2 = biological target: T2, Cytochrome P450 1A2 (Homo sapiens, UniProt P05177); experiment: Inhibition of CYP1A2 in human liver microsomes at 5 uM using phenacetin as substrate after 20 mins in presence of NADPH by LC-MS/MS analysis; format: ADME
T2 sequence (P05177 whole entry): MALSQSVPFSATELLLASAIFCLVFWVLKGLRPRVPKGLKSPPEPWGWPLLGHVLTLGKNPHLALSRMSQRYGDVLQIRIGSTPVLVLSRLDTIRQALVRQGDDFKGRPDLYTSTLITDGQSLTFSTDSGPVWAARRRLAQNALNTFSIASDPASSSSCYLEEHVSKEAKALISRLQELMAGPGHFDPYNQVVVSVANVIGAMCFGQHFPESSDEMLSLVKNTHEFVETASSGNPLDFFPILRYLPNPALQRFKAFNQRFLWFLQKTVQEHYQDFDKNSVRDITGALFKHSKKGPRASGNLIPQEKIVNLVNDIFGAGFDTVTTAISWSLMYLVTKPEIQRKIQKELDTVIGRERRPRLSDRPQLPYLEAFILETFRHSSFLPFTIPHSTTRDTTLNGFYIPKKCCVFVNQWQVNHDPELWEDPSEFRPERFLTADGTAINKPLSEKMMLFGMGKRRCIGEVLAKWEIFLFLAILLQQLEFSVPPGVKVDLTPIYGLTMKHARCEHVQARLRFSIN

Cytochrome P450 2C9 = Cytochrome P450 2C9 (Homo sapiens, UniProt P11712); experiment: Inhibition of CYP2C9 in human liver microsomes at 5 uM using diclofenac as substrate after 20 mins in presence of NADPH by LC-MS/MS analysis; format: ADME
[19] = Oral bioavailability in Balb/c mouse at 3 mg/kg by LC-MS/MS analysis; format: ADME, organism-based; settings: in vivo
Cytochrome P450 2D6 = Cytochrome P450 2D6 (Homo sapiens, UniProt P10635); experiment: Inhibition of CYP2D6 in human liver microsomes at 5 uM using dextromethorphan as substrate after 20 mins in presence of NADPH by LC-MS/MS analysis; format: ADME
[20] = Half life in Balb/c mouse at 1 mg/kg, iv or 3 mg/kg, po by LC-MS/MS analysis; format: ADME, organism-based; settings: in vivo

PI3-kinase p110-delta/p85-alpha, sequence (P27986 whole entry): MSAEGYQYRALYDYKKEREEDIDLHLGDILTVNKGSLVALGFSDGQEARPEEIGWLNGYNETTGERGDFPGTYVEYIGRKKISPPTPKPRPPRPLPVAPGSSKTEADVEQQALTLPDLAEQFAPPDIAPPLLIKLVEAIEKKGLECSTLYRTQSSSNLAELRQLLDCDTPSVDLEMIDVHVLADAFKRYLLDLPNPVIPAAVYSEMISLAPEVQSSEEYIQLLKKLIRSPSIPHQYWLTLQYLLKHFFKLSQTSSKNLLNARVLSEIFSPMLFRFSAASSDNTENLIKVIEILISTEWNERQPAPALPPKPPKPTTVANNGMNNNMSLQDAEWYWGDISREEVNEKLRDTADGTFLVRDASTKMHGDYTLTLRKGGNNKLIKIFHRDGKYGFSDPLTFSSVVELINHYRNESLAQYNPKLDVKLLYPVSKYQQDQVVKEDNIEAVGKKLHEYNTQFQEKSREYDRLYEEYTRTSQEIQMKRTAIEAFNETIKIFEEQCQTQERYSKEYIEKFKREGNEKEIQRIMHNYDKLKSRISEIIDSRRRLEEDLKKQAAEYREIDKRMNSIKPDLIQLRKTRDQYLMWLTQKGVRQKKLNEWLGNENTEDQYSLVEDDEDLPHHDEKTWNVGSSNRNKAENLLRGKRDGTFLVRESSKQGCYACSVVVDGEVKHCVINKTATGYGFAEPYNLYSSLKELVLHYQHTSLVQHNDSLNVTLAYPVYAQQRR
PI3-kinase p110-delta/p85-alpha, sequence (O00329 whole entry): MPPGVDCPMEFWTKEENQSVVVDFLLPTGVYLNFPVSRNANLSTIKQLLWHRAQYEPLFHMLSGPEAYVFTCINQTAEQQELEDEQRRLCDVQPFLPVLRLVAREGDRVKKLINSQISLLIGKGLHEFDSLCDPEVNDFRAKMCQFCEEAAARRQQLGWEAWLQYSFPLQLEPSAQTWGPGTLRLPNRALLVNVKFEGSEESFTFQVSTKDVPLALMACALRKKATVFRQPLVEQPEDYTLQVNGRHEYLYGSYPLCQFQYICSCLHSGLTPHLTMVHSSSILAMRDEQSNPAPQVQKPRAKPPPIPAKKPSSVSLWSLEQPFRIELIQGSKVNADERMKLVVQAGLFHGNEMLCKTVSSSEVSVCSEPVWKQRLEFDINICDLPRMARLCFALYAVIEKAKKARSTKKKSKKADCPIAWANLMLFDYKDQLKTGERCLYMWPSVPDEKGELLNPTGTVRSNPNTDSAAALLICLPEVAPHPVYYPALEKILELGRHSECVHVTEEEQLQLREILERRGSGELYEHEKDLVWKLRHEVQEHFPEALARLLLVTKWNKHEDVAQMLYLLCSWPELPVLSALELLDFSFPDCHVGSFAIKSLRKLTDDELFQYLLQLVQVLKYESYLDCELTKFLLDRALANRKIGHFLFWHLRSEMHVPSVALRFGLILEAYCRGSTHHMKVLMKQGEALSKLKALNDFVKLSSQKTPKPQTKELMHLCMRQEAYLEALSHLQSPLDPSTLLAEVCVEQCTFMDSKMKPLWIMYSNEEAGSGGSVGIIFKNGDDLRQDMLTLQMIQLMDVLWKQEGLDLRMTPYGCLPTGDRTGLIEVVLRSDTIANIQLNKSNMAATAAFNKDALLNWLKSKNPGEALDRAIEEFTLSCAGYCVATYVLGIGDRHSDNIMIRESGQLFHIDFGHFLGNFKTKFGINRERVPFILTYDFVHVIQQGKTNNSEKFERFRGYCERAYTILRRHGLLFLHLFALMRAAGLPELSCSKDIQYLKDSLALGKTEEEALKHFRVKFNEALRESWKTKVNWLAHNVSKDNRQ
Cytochrome P450 2C9, sequence (P11712 whole entry): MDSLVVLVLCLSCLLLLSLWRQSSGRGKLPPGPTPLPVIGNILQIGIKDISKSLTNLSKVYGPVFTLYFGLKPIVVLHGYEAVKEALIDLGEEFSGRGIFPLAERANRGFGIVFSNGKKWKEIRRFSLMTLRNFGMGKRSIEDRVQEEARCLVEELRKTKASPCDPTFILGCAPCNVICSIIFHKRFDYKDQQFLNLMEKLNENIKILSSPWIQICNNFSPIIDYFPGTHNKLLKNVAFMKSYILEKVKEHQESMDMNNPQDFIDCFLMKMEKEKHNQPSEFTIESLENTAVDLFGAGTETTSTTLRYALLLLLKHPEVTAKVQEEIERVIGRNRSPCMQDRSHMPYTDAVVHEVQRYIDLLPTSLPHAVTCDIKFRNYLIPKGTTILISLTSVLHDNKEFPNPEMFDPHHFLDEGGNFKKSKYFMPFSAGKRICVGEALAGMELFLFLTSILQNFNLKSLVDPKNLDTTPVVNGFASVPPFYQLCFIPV
Cytochrome P450 2C19, sequence (P33261 whole entry): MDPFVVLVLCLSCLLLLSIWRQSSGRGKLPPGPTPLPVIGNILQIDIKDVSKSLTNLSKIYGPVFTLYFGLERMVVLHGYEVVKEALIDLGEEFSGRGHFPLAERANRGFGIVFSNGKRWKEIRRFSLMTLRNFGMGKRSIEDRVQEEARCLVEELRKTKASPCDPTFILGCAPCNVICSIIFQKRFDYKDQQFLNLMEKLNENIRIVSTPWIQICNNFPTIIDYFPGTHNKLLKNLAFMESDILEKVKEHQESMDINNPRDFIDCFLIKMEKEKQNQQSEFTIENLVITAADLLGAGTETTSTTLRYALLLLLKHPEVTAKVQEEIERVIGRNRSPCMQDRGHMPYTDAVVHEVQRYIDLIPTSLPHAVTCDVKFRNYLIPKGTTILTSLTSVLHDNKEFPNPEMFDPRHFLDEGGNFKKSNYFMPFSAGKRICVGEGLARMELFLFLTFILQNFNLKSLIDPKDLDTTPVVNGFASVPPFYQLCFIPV
Cytochrome P450 2D6, sequence (P10635 whole entry): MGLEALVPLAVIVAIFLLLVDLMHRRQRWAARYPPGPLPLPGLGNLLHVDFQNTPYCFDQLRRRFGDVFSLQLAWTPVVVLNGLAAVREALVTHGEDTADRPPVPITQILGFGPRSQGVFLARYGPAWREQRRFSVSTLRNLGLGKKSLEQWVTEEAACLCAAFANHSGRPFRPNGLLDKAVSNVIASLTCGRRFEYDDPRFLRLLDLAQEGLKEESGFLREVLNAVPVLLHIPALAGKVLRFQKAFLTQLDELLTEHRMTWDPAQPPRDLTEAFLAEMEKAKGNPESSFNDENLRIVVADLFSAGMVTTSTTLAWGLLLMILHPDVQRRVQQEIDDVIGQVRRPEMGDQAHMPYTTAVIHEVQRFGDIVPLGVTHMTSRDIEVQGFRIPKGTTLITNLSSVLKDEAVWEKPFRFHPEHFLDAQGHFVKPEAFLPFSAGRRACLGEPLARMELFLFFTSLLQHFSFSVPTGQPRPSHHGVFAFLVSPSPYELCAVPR
Cytochrome P450 3A4, sequence (P08684 whole entry): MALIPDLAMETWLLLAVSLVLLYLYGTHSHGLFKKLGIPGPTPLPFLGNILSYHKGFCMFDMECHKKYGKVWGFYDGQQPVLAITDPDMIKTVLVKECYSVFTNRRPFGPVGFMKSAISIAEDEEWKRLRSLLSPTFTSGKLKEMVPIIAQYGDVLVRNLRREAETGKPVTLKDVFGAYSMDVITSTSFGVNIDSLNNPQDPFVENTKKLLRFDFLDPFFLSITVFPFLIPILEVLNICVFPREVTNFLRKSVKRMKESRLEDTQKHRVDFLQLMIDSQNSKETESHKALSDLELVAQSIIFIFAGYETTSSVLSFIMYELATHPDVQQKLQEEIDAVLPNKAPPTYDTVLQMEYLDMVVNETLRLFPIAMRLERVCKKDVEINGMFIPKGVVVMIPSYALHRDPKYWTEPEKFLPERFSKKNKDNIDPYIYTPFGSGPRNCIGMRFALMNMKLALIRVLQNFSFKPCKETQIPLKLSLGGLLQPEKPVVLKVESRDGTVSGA

Structure (SMILES): COc1ncc(-c2cc(OC[C@@H]3CCCN(C(=O)C4CCOCC4)C3)c3cnn(C)c3n2)cc1NS(C)(=O)=O
IC50 [1]: 3.9 nM | Ratio IC50 (Homo sapiens [2]): 39 | Ratio IC50 (Homo sapiens [3]): 490 | Ratio IC50 (Homo sapiens [4]): 1300

Structure (SMILES): COc1ncc(-c2cc(OC[C@@H]3CCCN(C(=O)c4cccnn4)C3)c3cnn(C)c3n2)cc1NS(C)(=O)=O
IC50 [1]: 7.3 nM | Ratio IC50 (Homo sapiens [2]): 35

Structure (SMILES): COc1ncc(-c2cc(OC[C@H]3CCCN(C(=O)C4CCOCC4)C3)c3cnn(C)c3n2)cc1NS(C)(=O)=O
IC50 [1]: 30 nM | Ratio IC50 (Homo sapiens [2]): 6.6

Structure (SMILES): COc1ncc(-c2cc(OC3CN(C(=O)C4CCOCC4)C3)c3cnn(C)c3n2)cc1NS(C)(=O)=O
IC50 [1]: 63 nM | Ratio IC50 (Homo sapiens [2]): 3.7

Structure (SMILES): COc1ncc(-c2cc(OC[C@@H]3CCCN(C(=O)C4CCN(CCC(F)(F)F)CC4)C3)c3cnn(C)c3n2)cc1NS(C)(=O)=O
IC50 [1]: 41 nM | Ratio IC50 (Homo sapiens [2]): 38

Structure (SMILES): COc1ncc(-c2cc(O[C@@H]3CCN(C(=O)C4CCOCC4)C3)c3cnn(C)c3n2)cc1NS(C)(=O)=O
inhibition in vivo at 1 mg/kg (Mus musculus [6]): -2% | Stability [7]: Stable | inhibition in vivo at 2 mg/kg (Mus musculus [8]): 32%

Structure (SMILES): COc1ncc(-c2cc(O[C@@H]3CCN(Cc4c(C)nn(C)c4C)C3)c3cnn(C)c3n2)cc1NS(C)(=O)=O
inhibition in vivo at 2 mg/kg (Mus musculus [8]): 37% | CLint scaled at 0.2 µM [5]: 620 mL/min/kg

Structure (SMILES): COc1ncc(-c2cc(OC[C@@H]3CCCN(C(=O)C4CCN(C(C)=O)CC4)C3)c3cnn(C)c3n2)cc1NS(C)(=O)=O
IC50 [1]: 4.6 nM | Ratio IC50 (Homo sapiens [2]): 260

Structure (SMILES): COc1ncc(-c2cc(OC[C@@H]3CCCN(C(=O)CC4CCOC4)C3)c3cnn(C)c3n2)cc1NS(C)(=O)=O (stereo partly specified)
IC50 [1]: 4.8 nM | Ratio IC50 (Homo sapiens [2]): 210

Structure (SMILES): COc1ncc(-c2cc(O[C@H]3CC[C@H](NC(=O)C4CCOCC4)CC3)c3cnn(C)c3n2)cc1NS(C)(=O)=O
IC50 [1]: 150 nM

The remaining molecules from weak to strong by IC50 [1], led by results:

IC50 [1]: 3.2 nM | CLint scaled at 0.2 µM [5]: > 1000 mL/min/kg
Structure (SMILES): COc1ncc(-c2cc(OC[C@@H]3CCCN(Cc4cn(C)nc4C)C3)c3cnn(C)c3n2)cc1NS(C)(=O)=O
Ratio IC50 (Homo sapiens [2]): 730

IC50 [1]: 1.8 nM | CLint scaled at 0.2 µM [5]: 910 mL/min/kg
Structure (SMILES): COc1ncc(-c2cc(OC[C@@H]3CCCN(CC4(C)COC4)C3)c3cnn(C)c3n2)cc1NS(C)(=O)=O
Ratio IC50 (Homo sapiens [2]): 570

IC50 [1]: 1.4 nM | CLint scaled at 0.2 µM [5]: > 1000 mL/min/kg
Structure (SMILES): COc1ncc(-c2cc(OC[C@@H]3CCCN(Cc4c(C)nn(C)c4C)C3)c3cnn(C)c3n2)cc1NS(C)(=O)=O
Ratio IC50 (Homo sapiens [2]): 780

solubility at 20 h, 130 µM [9]: ≥ 100 µM | clearance [11]: 25.5 mL/min/kg | Papp at 2 h, 50 µM [12]: 22 ×10⁻⁶ cm/s | inhibition (INH) (Cytochrome P450 2C8): Not Active | IC50 [1]: 1.3 nM | fraction unbound at 6 h, 2 µM [13]: 0.23 | Tmax [14]: 0.5 h | Vd [15]: 5.64 L/kg | inhibition (INH) (Cytochrome P450 2C19): Not Active | inhibition (INH) (Cytochrome P450 3A4): Not Active | Cmax [16]: 230 ng/mL | AUC(0-t) [18]: 1420 ng·h/mL | inhibition (INH) (Cytochrome P450 1A2): Not Active | inhibition (INH) (Cytochrome P450 2C9): Not Active | bioavailability [19]: 73% | inhibition (INH) (Cytochrome P450 2D6): Not Active | half-life [20]: 2.63 h | CLint scaled at 0.2 µM [5]: 88 mL/min/kg
Structure (SMILES): COc1ncc(-c2cc(OC[C@@H]3CCCN(CCC4CCOCC4)C3)c3cnn(C)c3n2)cc1NS(C)(=O)=O
inhibition (Mus musculus [10]): Dose-dependent effect | inhibition in vivo at 1 mg/kg (Mus musculus [6]): 68% | Ratio IC50 (Homo sapiens [2]): 430 | Ratio IC50 (Homo sapiens [3]): 3600 | inhibition in vivo at 0.5 mg/kg (Mus musculus [17]): 56% | inhibition in vivo at 2 mg/kg (Mus musculus [8]): 83% | Ratio IC50 (Homo sapiens [4]): 660

IC50 [1]: 0.79 nM | CLint scaled at 0.2 µM [5]: 340 mL/min/kg
Structure (SMILES): COc1ncc(-c2cc(OC[C@@H]3CCCN(CC4CCOCC4)C3)c3cnn(C)c3n2)cc1NS(C)(=O)=O
Ratio IC50 (Homo sapiens [2]): 87 | Ratio IC50 (Homo sapiens [3]): 3200 | Ratio IC50 (Homo sapiens [4]): 890
